Laboratory results reported in PubChem BioAssay AID256 (DTP/NCI, 2004).
Several values for one entry are separate records, joined by “and”; a condition that tells them apart may be missing. Equal values may be shown once. Toxic doses and inconclusive results are not listed. How the source made its calls: active means survival T/C of 150% or more; inactive means T/C below 125% in these data.

Test system: CD2F1 mice, L1210 leukemia ip, survival T/C
Assay: NCI In Vivo Anticancer Drug Screen. Data for tumor model L1210 Leukemia (intraperitoneal) in CD2F1 (CDF1) mice
Conditions: endpoint: mean survival time, higher = longer survival
In short: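 Antitumor effect is scored in animals hosting a serially transplanted tumor. Values compare compound-dosed animals against vehicle-only controls as a simple quotient.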

[1] = dose: 100.0 mg/kg/injection, schedule: Q01DX009 (ip), vehicle: saline with Tween-80
[2] = dose: 200.0 mg/kg/injection, schedule: Q01DX009 (ip), vehicle: saline with Tween-80
[3] = dose: 400.0 mg/kg/injection, schedule: Q01DX009 (ip), vehicle: saline with Tween-80
[4] = dose: 100.0 mg/kg/injection, schedule: Q01DX001 (ip), vehicle: saline
[5] = dose: 200.0 mg/kg/injection, schedule: Q01DX001 (ip), vehicle: saline
[6] = dose: 400.0 mg/kg/injection, schedule: Q01DX001 (ip), vehicle: saline
[7] = dose: 100.0 mg/kg/injection, schedule: Q01DX009 (ip), vehicle: saline
[8] = dose: 100.0 mg/kg/injection, schedule: Q04DX003 (ip), vehicle: saline
[9] = dose: 200.0 mg/kg/injection, schedule: Q01DX009 (ip), vehicle: saline
[10] = dose: 200.0 mg/kg/injection, schedule: Q04DX003 (ip), vehicle: saline
[11] = dose: 400.0 mg/kg/injection, schedule: Q01DX009 (ip), vehicle: saline
[12] = dose: 400.0 mg/kg/injection, schedule: Q04DX003 (ip), vehicle: saline
[13] = dose: 100.0 mg/kg/injection, schedule: Q04DX003 (ip), vehicle: saline with Tween-80
[14] = dose: 200.0 mg/kg/injection, schedule: Q04DX003 (ip), vehicle: saline with Tween-80
[15] = dose: 400.0 mg/kg/injection, schedule: Q04DX003 (ip), vehicle: saline with Tween-80
[16] = dose: 100.0 mg/kg/injection, schedule: Q01DX001 (ip), vehicle: saline with Tween-80
[17] = dose: 100.0 mg/kg/injection, schedule: Q04DX002 (ip), vehicle: saline with Tween-80

Measured: T/C

C[n+]1ccc(/C=C\c2ccc(N(CCCl)CCCl)cc2)c2ccccc21
inactive: dose: 6.25 mg/kg/injection, schedule: Q01DX009 (ip), vehicle: Klucel (hydroxypropylcellulose) (HPC) 98 % of control | dose: 12.5 mg/kg/injection, schedule: Q01DX009 (ip), vehicle: Klucel (hydroxypropylcellulose) (HPC) 101 % of control | dose: 25.0 mg/kg/injection, schedule: Q01DX009 (ip), vehicle: Klucel (hydroxypropylcellulose) (HPC) 112 % of control

COC(=O)c1cncc(C(=O)OC)c1
inactive: [1] 94 % of control | [2] 92 % of control | [3] 90 % of control

COc1ccc(C(C)c2ccccc2)cc1 (centres undefined)
inactive: [1] 97 % of control | [2] 95 % of control | [3] 97 % of control

N#CC1(OC2OC(CO)C(O)C(O)C2O)C=CC(O)C1O (centres undefined)
inactive: [4] 101 % of control | [5] 101 % of control | [6] 98 % of control

O=C1CSC(=S)N1/N=C/c1ccccc1Cl
inactive: dose: 75.0 mg/kg/injection, schedule: Q01DX001 (ip), vehicle: other 96 % of control | dose: 150.0 mg/kg/injection, schedule: Q01DX001 (ip), vehicle: other 96 % of control | dose: 300.0 mg/kg/injection, schedule: Q01DX001 (ip), vehicle: other 94 % of control

Cc1cc2c(cc1C)N(C(=O)CN1CCCCC1)CC(=O)N2
inactive: dose: 75.0 mg/kg/injection, schedule: Q04DX003 (ip), vehicle: saline 94 % of control | dose: 150.0 mg/kg/injection, schedule: Q04DX003 (ip), vehicle: saline 89 % of control

O=C(NO)c1ccncc1
inactive: dose: 50.0 mg/kg/injection, schedule: Q01DX001 (ip), vehicle: saline 106 % of control | [4] 103 % of control | [7] 102 % of control | [8] 91 % of control | [5] 110 % of control | [9] 104 % of control | [10] 94 % of control | [6] 97 % of control | [11] 107 % of control | [12] 94 % of control

CCCCCCCN(CCCCCCC)CC(OC(C)=O)c1cc2ccccc2c2cc(Br)ccc12 (centres undefined)
inactive: [13] 98 % of control | [14] 101 % of control | [15] 104 % of control

CCc1cccc([N+](=O)[O-])c1CC
inactive: dose: 25.0 mg/kg/injection, schedule: Q04DX003 (ip), vehicle: saline with Tween-80 97 % of control | dose: 50.0 mg/kg/injection, schedule: Q04DX003 (ip), vehicle: saline with Tween-80 95 % of control | [13] 100 % of control and 105 % of control

CCCC[n+]1ccccc1Cc1ccccc1
inactive: dose: 25.0 mg/kg/injection, schedule: Q04DX003 (ip), vehicle: saline 101 % of control

O=C(OC(c1ccccc1)(C(F)(F)F)C(F)(F)F)c1ccccc1Sc1ccccc1
inactive: [13] 98 % of control | [14] 93 % of control | [15] 93 % of control

CC(C)CCCCCOC(=O)Nc1cccc2ccccc12
inactive: [16] 92 % of control | dose: 200.0 mg/kg/injection, schedule: Q01DX001 (ip), vehicle: saline with Tween-80 89 % of control | dose: 400.0 mg/kg/injection, schedule: Q01DX001 (ip), vehicle: saline with Tween-80 92 % of control

CCOC(=O)c1c[nH]c2ccc([N+](=O)[O-])cc2c1=O
inactive: dose: 100.0 mg/kg/injection, schedule: Q01DX001 (ip), vehicle: Klucel (hydroxypropylcellulose) (HPC) 111 % of control | [1] 97 % of control | [13] 90 % of control | dose: 200.0 mg/kg/injection, schedule: Q01DX001 (ip), vehicle: Klucel (hydroxypropylcellulose) (HPC) 96 % of control | [2] 100 % of control | [14] 91 % of control | dose: 400.0 mg/kg/injection, schedule: Q01DX001 (ip), vehicle: Klucel (hydroxypropylcellulose) (HPC) 100 % of control | [3] 94 % of control | [15] 88 % of control

NCc1ccc(N)cc1
inactive: dose: 75.0 mg/kg/injection, schedule: Q01DX001 (ip), vehicle: saline 98 % of control | dose: 150.0 mg/kg/injection, schedule: Q01DX001 (ip), vehicle: saline 95 % of control | dose: 300.0 mg/kg/injection, schedule: Q01DX001 (ip), vehicle: saline 96 % of control

C=C1C(=O)OC2CC3(C)OC3CC/C(C)=C/C(OC(C)=O)C12 (centres undefined)
inactive: [13] 105 % of control | [14] 91 % of control

CC1CN(C)CCN1C (centres undefined)
inactive: [7] 100 % of control | [8] 104 % of control | [9] 100 % of control | [10] 104 % of control | [11] 98 % of control | [12] 98 % of control

NCCC(=O)O
inactive: [1] 98 % of control | [13] 89 % of control | [2] 97 % of control | [14] 104 % of control | [3] 97 % of control | [15] 98 % of control

CN1C(=O)C=CC1=O
inactive: dose: 0.5 mg/kg/injection, schedule: Q01DX009 (ip), vehicle: saline 101 % of control | dose: 1.0 mg/kg/injection, schedule: Q01DX009 (ip), vehicle: saline 95 % of control | dose: 2.0 mg/kg/injection, schedule: Q01DX009 (ip), vehicle: saline 93 % of control | dose: 4.0 mg/kg/injection, schedule: Q01DX009 (ip), vehicle: saline 95 % of control

CN(C)c1ccc(C(=C2C=CC(=[N+](C)C)C=C2)c2ccc(N(C)C)cc2)cc1 (tested in a mixture with another compound)
inactive: dose: 0.15 mg/kg/injection, schedule: Q01DX009 (ip), vehicle: saline with Tween-80 110 % of control | dose: 0.31 mg/kg/injection, schedule: Q01DX009 (ip), vehicle: saline with Tween-80 100 % of control | dose: 0.31 mg/kg/injection, schedule: Q01DX009 (ip), vehicle: suspension in saline 97 % of control | dose: 0.62 mg/kg/injection, schedule: Q01DX009 (ip), vehicle: saline with Tween-80 105 % of control | dose: 0.62 mg/kg/injection, schedule: Q01DX009 (ip), vehicle: suspension in saline 106 % of control | dose: 1.25 mg/kg/injection, schedule: Q01DX009 (ip), vehicle: saline with Tween-80 113 % of control | dose: 1.25 mg/kg/injection, schedule: Q01DX009 (ip), vehicle: suspension in saline 101 % of control | dose: 2.5 mg/kg/injection, schedule: Q01DX009 (ip), vehicle: saline with Tween-80 117 % of control | dose: 2.5 mg/kg/injection, schedule: Q01DX009 (ip), vehicle: suspension in saline 106 % of control

N#C/C(=C\c1cc(Br)cc(Br)c1O)c1ccc([N+](=O)[O-])cc1
inactive: [1] 103 % of control | [2] 96 % of control | [3] 94 % of control

O=C(O)CS(=O)(=O)CC(=O)O
inactive: dose: 25.0 mg/kg/injection, schedule: Q01DX001 (ip), vehicle: saline with Tween-80 93 % of control | dose: 50.0 mg/kg/injection, schedule: Q01DX001 (ip), vehicle: saline with Tween-80 104 % of control | dose: 50.0 mg/kg/injection, schedule: Q01DX009 (ip), vehicle: saline 90 % of control | [16] 102 % of control | [7] 89 % of control | [9] 93 % of control

C=C1C(=O)OCC2C(C(=O)O)=CC3C(C)C(C)=CC123 (centres undefined)
inactive: dose: 20.0 mg/kg/injection, schedule: Q04DX003 (ip), vehicle: saline with Tween-80 109 % of control | dose: 40.0 mg/kg/injection, schedule: Q04DX003 (ip), vehicle: saline with Tween-80 121 % of control | dose: 80.0 mg/kg/injection, schedule: Q04DX003 (ip), vehicle: saline with Tween-80 120 % of control

CCOC(=O)C1(C(=O)OCC)CC2(COC(c3ccccc3)OC2)C1
inactive: [8] 97 % of control | [10] 97 % of control | [12] 95 % of control

COC(=O)c1ccc(-n2cc(C(=O)OC)c([N+]#N)c2[O-])cc1
inactive: [17] 107 % of control | dose: 200.0 mg/kg/injection, schedule: Q04DX002 (ip), vehicle: saline with Tween-80 88 % of control | [14] 93 % of control | dose: 400.0 mg/kg/injection, schedule: Q04DX002 (ip), vehicle: saline with Tween-80 107 % of control | [15] 93 % of control

O=C(COc1ccccc1-c1ccccc1)Nc1ccccc1-c1ccccc1
inactive: dose: 25.0 mg/kg/injection, schedule: Q04DX002 (ip), vehicle: saline with Tween-80 98 % of control | dose: 50.0 mg/kg/injection, schedule: Q04DX002 (ip), vehicle: saline with Tween-80 98 % of control | [17] 94 % of control

Cc1cc(C)c(C)c(S(=O)(=O)O)c1C
inactive: dose: 50.0 mg/kg/injection, schedule: Q01DX009 (ip), vehicle: saline with Tween-80 102 % of control | [1] 102 % of control | [13] 101 % of control | [14] 89 % of control

NC1CC(=O)C(CC2C(=O)CC(N)CC2=O)C(=O)C1 (centres undefined)
inactive: [13] 102 % of control | [14] 101 % of control | [15] 98 % of control
